Laboratory results taken from patent publication US20110111021A1, “PHARMACEUTICAL PREPARATION” (HANALL BIOPHARMA CO., LTD., priority 2008, published 2011).

What was measured:
[1] = cited from earlier work
[2] = Pharmacokinetic evaluation of aliskiren and atorvastatin in rats (animal test); type: in vivo; settings: SD rats, oral, once a day for 8 days
Method: As an experiment to confirm the effects of the invention, an animal test was carried out as follows, in order to confirm the effects of conventional combined administration and inventive chronotherapeutic administration of pharmacologically active ingredients, aliskiren as a renin inhibitor and atorvastatin as an HMG-CoA reductase inhibitor.
1) Title: Pharmacokinetic evaluation of aliskiren and atorvastatin in a hypertensive animal model.
2) Object: It is intended to verify through the chronotherapeutic administration-based pharmacokinetic changes the fact that the problem of pharmacokinetic interaction between different drugs upon simultaneous administration of drug groups metabolized by the same hepatic enzyme can be solved by controlled release of the drugs.
1. Test group: Animals were grouped into two groups (n=6), a group receiving simultaneous administration of aliskiren/atorvastatin, and a group receiving chronotherapeutic administration of aliskiren/atorvastatin.
2. Administration route: Forced intragastric administration via an oral sonde.
3. […]
5. Administration volume: 5 mL/kg based on the body weight of animals measured on the day of administration. […]

[3] = concurrent administration of aliskiren and atorvastatin; cited from earlier work
cytochrome P450 3A4 = cytochrome P450 3A4 (Homo sapiens, UniProt P08684); settings: in vitro experiments; cited from earlier work
cytochrome P450 3A4, sequence (P08684 whole entry, species assumed): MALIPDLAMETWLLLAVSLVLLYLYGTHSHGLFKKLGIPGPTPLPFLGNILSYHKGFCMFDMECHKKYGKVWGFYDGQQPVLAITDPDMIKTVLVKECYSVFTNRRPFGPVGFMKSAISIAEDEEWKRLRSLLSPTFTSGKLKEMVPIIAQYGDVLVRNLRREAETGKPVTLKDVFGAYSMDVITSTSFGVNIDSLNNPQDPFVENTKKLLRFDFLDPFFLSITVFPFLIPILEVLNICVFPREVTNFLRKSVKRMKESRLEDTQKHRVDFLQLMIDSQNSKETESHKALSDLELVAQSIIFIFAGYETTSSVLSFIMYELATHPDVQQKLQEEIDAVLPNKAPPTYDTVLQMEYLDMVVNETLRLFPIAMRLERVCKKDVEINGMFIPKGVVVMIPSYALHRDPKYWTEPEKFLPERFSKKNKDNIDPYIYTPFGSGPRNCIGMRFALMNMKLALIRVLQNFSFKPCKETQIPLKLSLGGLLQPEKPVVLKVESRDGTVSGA

[4] = system: hepatic enzyme cytochrome P450; settings: cited from earlier work

In the case of `CC(C)(C)S(=O)(=O)C[C@@H](Cc1ccccc1)C(=O)N[C@@H](Cc1cnc[nH]1)C(=O)N[C@@H](CC1CCCCC1)[C@@H](O)[C@@H](O)C1CC1` [remikiren], the “bioavailability (in words)” value ([1]; in vivo) is listed as “low” and the “half-life (in words)” value ([1]; in vivo) is listed as “short”.

In the case of `COCCCOc1cc(C[C@@H](C[C@H](N)[C@@H](O)C[C@H](C(=O)NCC(C)(C)C(N)=O)C(C)C)C(C)C)ccc1OC` [aliskiren, 2(S),4(S),5(S),7(S)-N-(3-amino-2,2-dimethyl-3-oxopropyl)-2,7-di(1-methylethyl)-4-hydroxy-5-amino-8-[4-methoxy-3-(3-methoxy-propoxy)phenyl]-octanamide], the “blood level of aliskiren compared to the single administration group” value ([2]; aliskiren 300 mg/kg and atorvastatin 80 mg/kg simultaneously) is listed as “significant increase”, the “blood aliskiren level compared to the single administration group” value ([2]; aliskiren 300 mg/kg given 4 hours after atorvastatin 80 mg/kg (chronotherapeutic)) is listed as “equivalent to that of the single administration group” and the bioavailability ([1]; in vivo) is listed as no more than 2%. The half-life ([1]; in vivo) was 24 h, the decrease in bioavailability ([1]; when high-fat diet is ingested) was 71% and the “decrease in peak blood level” value ([1]; when high-fat diet is ingested) was 85%. The “increase in blood aliskiren level” value [3] was 50%, the “metabolism by cytochrome P450 3A4” value (cytochrome P450 3A4) was “metabolized by cytochrome P450 3A4” and the “inhibition or induction of hepatic enzyme cytochrome P450” value [4] was “does not inhibit or induce”.

For `CC(C)C[C@H](O)[C@H](O)[C@H](CC1CCCCC1)NC(=O)[C@H](Cc1cscn1)NC(=O)[C@H](Cc1ccccc1)CS(=O)(=O)N1CCN(C)CC1` [zankiren], the “bioavailability (in words)” value ([1]; in vivo) is given as “low” and the “half-life (in words)” value ([1]; in vivo) is given as “short”.

For `COc1ccc(C[C@H](NC(=O)CC(C)(C)N)C(=O)N[C@@H](Cc2cnc[nH]2)C(=O)N[C@@H](CC2CCCCC2)[C@@H](O)[C@@H](O)CC(C)C)cc1` [enalkiren], the “bioavailability (in words)” value ([1]; in vivo) is listed as “low” and the “half-life (in words)” value ([1]; in vivo) is listed as “short”.
